Experimental data: patent US20120009320A1, “COMPOSITIONS COMPRISING MONATIN AND CALCIUM” (priority 2009, published 2012)
Structures can show the parent of a compound that is named as a salt.

Legend:
panelists [1] = test: Three-member panel rating (0-9 scale) of difference in sweetness due to calcium at <=200 ppm; format: in vivo, human; set-up: key: 0 = none; 1 = trace; 2 = faint; 3 = slight; 4 = mild; 5 = moderate; 6 = definite; 7 = strong; 8 = very strong; 9 = extreme; settings: 20 ppm monatin in water, vs control without calcium
Description: The samples in Table 5 were prepared by adding 20 ppm of monatin to water in combination with an amount of calcium ranging between 12.5 ppm and 200 ppm. A control sample having 20 ppm of monatin and no calcium was also used. The monatin was in the R,R, form and prepared through a biosynthetic pathway as disclosed in U.S. Patent Publication No. 2005/282260. A three-member panel was used to evaluate sweetness, but instead of quantifying the sample in terms of sweetness equivalency (SEV), the panelists assigned the sample a number between 0 and 9 (see description of scale under Table 5).

panelists [2] = test: Sensory panel sweetness matching against sucrose references (SEV) in milk and water media, Example 1; format: in vivo, human; settings: for sweetness enhancement of water/calcium solution over monatin in water alone: c. 120 mg calcium/100 ml as Gluconal CAL
Description: As used herein, “sucrose equivalency value”, or SEV, is a measure of sweetness. The SEV is the concentration (% w/v) of a sucrose solution that gives a degree of sweetness that is perceived to be the same degree of sweetness as that of a test sample. For purposes of this disclosure, the SEV of an aqueous or dairy solution containing monatin is determined through comparison of the monatin-containing solution to a series of sucrose containing solutions prepared in the same medium (see Example 1).
Monatin compositions were prepared by adding monatin to each of the solutions below at 20 ppm and 40 ppm. Sucrose reference compositions were also prepared. • Milk (0% fat) • Milk (0% fat) adjusted to pH 4.6 with lactic acid • Milk (2% fat) • Milk (3.6% fat) • Water • Water, adjusted to pH 4.6 with lactic acid • Water containing c. 120 mg calcium/100 ml (Ca^2+ added as Gluconal CAL® soluble salt) • Water containing 4.5% lactose • Water containing c. 120 mg calcium/100 mL plus 4.5% lactose • Water containing 3% milk protein isolate (Davisco BiPro)
Panelists (8-10) were presented with a range (2-12%; w/v) of sucrose reference solutions prepared in each of the mediums listed above as well as two monatin test solutions at 20 ppm and 40 ppm prepared in the same manner. The panelists were instructed to taste the test sample and then to identify the reference sample that matched the perceived sweetness of the test sample. If the sweetness of the test sample was judged to fall between that of two references, panelists were asked to estimate sweetness to one decimal point. Panelists evaluated each sample in duplicate. All results for each test sample were averaged.

Question: For `NC(CC(O)(Cc1c[nH]c2ccccc12)C(=O)O)C(=O)O` (stereo not drawn) [R,R-Monatin, 2R,4R-Monatin mono potassium salt], which “Difference in Sweetness Due to Calcium” value (panelists [1]; calcium 12.5 ppm) is on record?
Answer: The value was 1.

Question: And the “Difference in Sweetness Due to Calcium” value (panelists [1]; calcium 25 ppm)?
Answer: Its value is 3.

Question: And the “Difference in Sweetness Due to Calcium” value (panelists [1]; calcium 50 ppm)?
Answer: The value was 4.

Question: And the “Difference in Sweetness Due to Calcium” value (panelists [1]; calcium 100 ppm)?
Answer: The value was 5.

Question: What about the “Difference in Sweetness Due to Calcium” value (panelists [1]; calcium 200 ppm) of the same molecule?
Answer: The value was 6.

Question: What about the “decrease in sweetness of water solution having 4.5% lactose compared to water solution only containing monatin” value (panelists [2]; 20 ppm monatin) of the same molecule?
Answer: The value was 22%.

Question: What about the “sweetness enhancement of 0% fat milk at pH 4.6 over 0% fat milk at pH 6.4” value (panelists [2]; 20 ppm monatin) of the same molecule?
Answer: The value was 13%.

Question: What about the SEV (panelists [2]; 20 ppm monatin, Milk (0% fat), pH 6.4) of the same molecule?
Answer: The SEV was 5.3 %; w/v.

Question: And the SEV (panelists [2]; 20 ppm monatin, Milk (0% fat; yogurt + milk), pH 4.6)?
Answer: The SEV was 6.0 %; w/v.

Question: And the SEV (panelists [2]; 20 ppm monatin, Milk (2% fat), pH 6.4)?
Answer: The SEV was 5.6 %; w/v.

Question: What about the SEV (panelists [2]; 20 ppm monatin, Milk (3.6% fat), pH 6.4) of the same molecule?
Answer: The SEV was 5.2 %; w/v.

Question: What about the SEV (panelists [2]; 20 ppm monatin, Water + 120 mg/100 mL calcium (Gluconal CAL), pH 7.6) of the same molecule?
Answer: The SEV was 6.4 %; w/v.

Question: And the SEV (panelists [2]; 20 ppm monatin, Water + 3% whey protein isolate, pH 7.8)?
Answer: Its SEV is 5.2 %; w/v.

Question: And the SEV (panelists [2]; 20 ppm monatin, Water + 4.5% lactose, pH 7.8)?
Answer: The SEV was 4.0 %; w/v.

Question: And the SEV (panelists [2]; 20 ppm monatin, Water + calcium + lactose, pH 7.8)?
Answer: Its SEV is 5.6 %; w/v.

Question: What about the SEV (panelists [2]; 20 ppm monatin, Water + lactic acid, pH 4.6) of the same molecule?
Answer: The SEV was 6.0 %; w/v.

Question: And the SEV (panelists [2]; 20 ppm monatin, Water, pH 7.8)?
Answer: Its SEV is 5.1 %; w/v.

Question: What about the “sweetness enhancement of water/calcium solution over monatin in water alone” value (panelists [2]; 20 ppm monatin) of the same molecule?
Answer: The value was 25%.

Question: And the “decrease in sweetness of water solution having 4.5% lactose compared to water solution only containing monatin” value (panelists [2]; 40 ppm monatin)?
Answer: The value was 18%.

Question: What about the “sweetness enhancement of 0% fat milk at pH 4.6 over 0% fat milk at pH 6.4” value (panelists [2]; 40 ppm monatin) of the same molecule?
Answer: The value was 16%.

Question: And the SEV (panelists [2]; 40 ppm monatin, Milk (0% fat), pH 6.4)?
Answer: The SEV was 8.5 %; w/v.

Question: And the SEV (panelists [2]; 40 ppm monatin, Milk (0% fat; yogurt + milk), pH 4.6)?
Answer: Its SEV is 9.9 %; w/v.

Question: What about the SEV (panelists [2]; 40 ppm monatin, Milk (2% fat), pH 6.4) of the same molecule?
Answer: The SEV was 8.7 %; w/v.

Question: What about the SEV (panelists [2]; 40 ppm monatin, Milk (3.6% fat), pH 6.4) of the same molecule?
Answer: The SEV was 8.3 %; w/v.

Question: And the SEV (panelists [2]; 40 ppm monatin, Water + 120 mg/100 mL calcium (Gluconal CAL), pH 7.6)?
Answer: The SEV was 9.0 %; w/v.

Question: And the SEV (panelists [2]; 40 ppm monatin, Water + 3% whey protein isolate, pH 7.8)?
Answer: Its SEV is 7.6 %; w/v.

Question: What about the SEV (panelists [2]; 40 ppm monatin, Water + 4.5% lactose, pH 7.8) of the same molecule?
Answer: Its SEV is 6.3 %; w/v.

Question: And the SEV (panelists [2]; 40 ppm monatin, Water + calcium + lactose, pH 7.8)?
Answer: The SEV was 8.0 %; w/v.

Question: What about the SEV (panelists [2]; 40 ppm monatin, Water + lactic acid, pH 4.6) of the same molecule?
Answer: The SEV was 7.9 %; w/v.

Question: What about the SEV (panelists [2]; 40 ppm monatin, Water, pH 7.8) of the same molecule?
Answer: Its SEV is 7.7 %; w/v.

Question: And the “sweetness enhancement of water/calcium solution over monatin in water alone” value (panelists [2]; 40 ppm monatin)?
Answer: Its value is 17%.

Question: What about the “impact of milk fat on relative sweetness values of monatin solutions prepared from milk” value (panelists [2]; milk 0%, 2%, 3.6% fat) of the same molecule?
Answer: Its value is “essentially unaffected”.
